Experimental data as given in patent US8772503B2, “Processes for the preparation of deferasirox, and deferasirox polymorphs” (Mapi Pharma Ltd., priority 2009, dated 2014).

Assay: Heating/drying of the solid form, rechecked by XRPD and DSC
Type: physicochemical
Conditions: for Solid form after heating (XRPD, DSC): heated to 160° C. under vacuum, 5 minutes
Procedure: Details of XRPD method used in the tests are mentioned below:
Details of DSC method used in the tests are mentioned below:
Heat from 30° C. to 350° C. at 10° C./min
Form II was further dried by heating (e.g. 60° C. for 1 h) after being checked by XRPD, DSC, TGA and NMR. The XRPD and DSC of Form II were rechecked following the dehydration process.
Form III was further dried at 120° C. after being checked by XRPD, DSC, TGA and NMR. The XRPD and DSC were rechecked.
Amorphous deferasirox was heated to 160° C. under vacuum and kept at this temperature for 5 min. The formed crystal was rechecked by XRPD and DSC.

## O=C(O)c1ccc(-n2nc(-c3ccccc3O)nc2-c2ccccc2O)cc1 [Form II, 4-[3,5-Bis(2-hydroxyphenyl)-1H-1,2,4-triazol-1-yl]benzoic acid]
Heated to 60° C. for 1 hr
  Solid form after heating/drying (XRPD, DSC): converted to Form I

## O=C(O)c1ccc(-n2nc(-c3ccccc3O)nc2-c2ccccc2O)cc1 [Form V, 4-[3,5-Bis(2-hydroxyphenyl)-1H-1,2,4-triazol-1-yl]benzoic acid]
Dried at 120° C. for 1 hr, vacuum
  Solid form after heating/drying (XRPD, DSC): converted to Form I

## O=C(O)c1ccc(-n2nc(-c3ccccc3O)nc2-c2ccccc2O)cc1 [amorphous deferasirox, 4-[3,5-Bis(2-hydroxyphenyl)-1H-1,2,4-triazol-1-yl]benzoic acid]
  Solid form after heating (XRPD, DSC): converted to Form I
Listed as Amorphous
  Solid form after heating (XRPD, DSC): transformed into Form I
